Where two headings read alike, the source gives them in different places.
What was measured:
MALCYP6P9a = MALCYP6P9a (Anopheles funestus, UniProt B5AII6); experiment: Pyrethroid depletion (metabolism) assay with recombinant enzyme; type: biochemical; settings: 20μM insecticide, 1 hour, vs -NADPH
Experimental: (§6) Membrane expressing recombinant CYP6P9a/-b and AgCPR, and reconstituted cytochrome b5 were added to the side of the tube and pre-incubated for 5 minutes at 30°C, with shaking at 1,200 rpm to activate the membrane. 20μM of test insecticide was then added into the final volume of 0.2ml (~2.5% v/v methanol), and reaction started by vortexing at 1,200 rpm and 30°C for 1 hour. Reactions were quenched with 0.1ml ice-cold methanol and incubated for 5 more minutes. Tubes were then centrifuged at 16,000 rpm and 4°C for 15 minutes, and 150μl of supernatant transferred into HPLC vials for analysis. Reactions were carried out in triplicates with experimental samples (+NADPH) and negative controls (-NADPH). 100μl of sample was loaded onto an isocratic mobile phase (90:10 v/v methanol to water) with a flow rate of 1ml/min, monitoring wavelength of 226nm and peaks separated with a 250mm C18 column (Acclaim 120, Dionex) on Agilent 1260 Infinity at 23°C. Enzyme activity was calculated as percentage depletion (the difference in the amount of insecticide(s) remaining in the +NADPH tubes compared with the–NADPH) and a t-test used for statistical analysis.

[1] = system: Asp^335Glu mutant of MALCYP6P9b; settings: 20μM insecticide
Experimental: (§1) To establish whether allelic variation in CYP6P9a and CYP6P9b impact their metabolic activities toward insecticides, pyrethroids were screened with the recombinant enzymes from these genes. […] Membrane expressing recombinant CYP6P9a/-b and AgCPR, and reconstituted cytochrome b5 were added to the side of the tube and pre-incubated for 5 minutes at 30°C, with shaking at 1,200 rpm to activate the membrane. 20μM of test insecticide was then added into the final volume of 0.2ml (~2.5% v/v methanol), and reaction started by vortexing at 1,200 rpm and 30°C for 1 hour. Reactions were quenched with 0.1ml ice-cold methanol and incubated for 5 more minutes. Tubes were then centrifuged at 16,000 rpm and 4°C for 15 minutes, and 150μl of supernatant transferred into HPLC vials for analysis. Reactions were carried out in triplicates with experimental samples (+NADPH) and negative controls (-NADPH). 100μl of sample was loaded onto an isocratic mobile phase (90:10 v/v methanol to water) with a flow rate of 1ml/min, monitoring wavelength of 226nm and peaks separated with a 250mm C18 column (Acclaim 120, Dionex) on Agilent 1260 Infinity at 23°C.
(§2) In addition, fluorescent probes were also screened to establish differences in the O-dealkylation activity of the mutants compared with the wild type enzyme. All in vitro and kinetic analyses were conducted as described above. […]

[2] = system: Val^109Ile mutant of MALCYP6P9b; settings: 20μM insecticide
Experimental: as §1, §2

BENCYP6P9b [3] = target: T1, BENCYP6P9b (Anopheles funestus, UniProt A0A0S1S7Y0); experiment: Pyrethroid depletion (metabolism) assay with recombinant enzyme; type: biochemical; settings: 20μM insecticide, 1 hour, vs -NADPH
Experimental: (§7) To establish whether allelic variation in CYP6P9a and CYP6P9b impact their metabolic activities toward insecticides, pyrethroids were screened with the recombinant enzymes from these genes. […] Membrane expressing recombinant CYP6P9a/-b and AgCPR, and reconstituted cytochrome b5 were added to the side of the tube and pre-incubated for 5 minutes at 30°C, with shaking at 1,200 rpm to activate the membrane. 20μM of test insecticide was then added into the final volume of 0.2ml (~2.5% v/v methanol), and reaction started by vortexing at 1,200 rpm and 30°C for 1 hour. Reactions were quenched with 0.1ml ice-cold methanol and incubated for 5 more minutes. Tubes were then centrifuged at 16,000 rpm and 4°C for 15 minutes, and 150μl of supernatant transferred into HPLC vials for analysis. Reactions were carried out in triplicates with experimental samples (+NADPH) and negative controls (-NADPH). 100μl of sample was loaded onto an isocratic mobile phase (90:10 v/v methanol to water) with a flow rate of 1ml/min, monitoring wavelength of 226nm and peaks separated with a 250mm C18 column (Acclaim 120, Dionex) on Agilent 1260 Infinity at 23°C. Enzyme activity was calculated as percentage depletion (the difference in the amount of insecticide(s) remaining in the +NADPH tubes compared with the–NADPH) and a t-test used for statistical analysis.

UGANCYP6P9b [4] = target: T2, UGANCYP6P9b (Anopheles funestus, UniProt A0A0S1S7Y0); experiment: Steady-state kinetics of pyrethroid metabolism; type: biochemical
Experimental: (§3) Reactions were performed in triplicates both for +NADPH (experimental tubes) and–NADPH (negative control). K m and V max were established from the plot of substrate concentrations against the initial velocities and fitting of the data to the Michaelis-Menten module using the least squares non-linear regression, as described in the GraphPad Prism 6.03 Software (GraphPad Inc., La Jolla, CA, USA).

BENCYP6P9b [5] = target: T1, BENCYP6P9b; experiment: Steady-state kinetics of pyrethroid metabolism; type: biochemical
Experimental: as §3

MALCYP6P9b [6] = target: T3, MALCYP6P9b (Anopheles funestus, UniProt B5AII7); experiment: Steady-state kinetics of pyrethroid metabolism; type: biochemical
Experimental: as §3

UGANCYP6P9a [7] = target: T4, UGANCYP6P9a (Anopheles funestus, UniProt B5AII6); experiment: Steady-state kinetics of pyrethroid metabolism; type: biochemical
Experimental: as §3

BENCYP6P9a [8] = target: T5, BENCYP6P9a (Anopheles funestus, UniProt A0A0S1RZ75); experiment: Steady-state kinetics of pyrethroid metabolism; type: biochemical
Experimental: as §3

FANGCYP6P9a [9] = target: T6, FANGCYP6P9a (Anopheles funestus, UniProt K7Z0P3); experiment: Pyrethroid depletion (metabolism) assay with recombinant enzyme; type: biochemical; settings: 20μM insecticide, 1 hour, vs -NADPH
UGANCYP6P9b [10] = target: T2, UGANCYP6P9b; experiment: as above; type: biochemical; settings: 20μM insecticide, 1 hour, vs -NADPH
UGANCYP6P9a [11] = target: T4, UGANCYP6P9a; experiment: as above; type: biochemical; settings: 20μM insecticide, 1 hour, vs -NADPH
Experimental: as §6

CYP6M2 = system: CYP6M2; design: method as in ref [5] (S1 Text); settings: cited from earlier work
[12] = system: transgenic flies over-expressing FANGCYP6P9b; settings: 2% permethrin paper
Experimental: (§4) Primers used for this PCR are given in S8 Table. PCR conditions, cloning techniques, construction of transgenic flies and expression of candidate genes was conducted as described in previous studies, with more details provided in S1 Text. For control group, flies with the same background as the UAS transgenic lines but devoid of the UAS construct with the candidate gene were crossed with the driver Actin5C-GAL4 line to generate Actin5C-GAL4-null flies.
(§5) These papers were then rolled and introduced into 45 cc plastic vials. The vials were then plugged with cotton wool soaked in 5% sucrose. 20–25 (2–4 days old, post-eclosion F1 females) were selected for the bioassays and introduced into the vials. Mortality plus knockdown was scored after 1 hr, 2 hrs, 3 hrs, 6 hrs, 12 hrs and 24 hrs post-exposure to the discriminating dose of the insecticides.

[13] = system: transgenic flies over-expressing FANGCYP6P9a; settings: 2% permethrin paper
Experimental: as §4, §5

[14] = system: transgenic flies over-expressing MALCYP6P9b; settings: 2% permethrin paper
Experimental: as §4, §5

[15] = system: transgenic flies over-expressing MALCYP6P9a; settings: 2% permethrin paper
Experimental: as §4, §5

FANGCYP6P9b [16] = target: T7, FANGCYP6P9b (Anopheles funestus, UniProt A0A0S1RZ61); experiment: Pyrethroid depletion (metabolism) assay with recombinant enzyme; type: biochemical; settings: 20μM insecticide, 1 hour, vs -NADPH
Experimental: as §7

[17] = target: wild type recombinant MALCYP6P9b (wrMALCYP6P9b) (Anopheles funestus, UniProt B5AII7)
Experimental: as §3
In addition, fluorescent probes were also screened to establish differences in the O-dealkylation activity of the mutants compared with the wild type enzyme. All in vitro and kinetic analyses were conducted as described above. However, as different mutants expressed with varying concentrations all assays were conducted within linear range, with the amount of enzyme and time which produced highest activities.

MALCYP6P9b [18] = target: T3, MALCYP6P9b; experiment: Pyrethroid depletion (metabolism) assay with recombinant enzyme; type: biochemical; settings: 20μM insecticide, 1 hour, vs -NADPH
Experimental: as §6

FANGCYP6P9a [19] = target: T6, FANGCYP6P9a
Experimental: as §3

FANGCYP6P9b [20] = target: T7, FANGCYP6P9b
Experimental: as §3

BENCYP6P9a [21] = target: T5, BENCYP6P9a; experiment: Pyrethroid depletion (metabolism) assay with recombinant enzyme; type: biochemical; settings: 20μM insecticide, 1 hour, vs -NADPH
Experimental: as §6

SMILES: CC1(C)C(C=C(Cl)Cl)C1C(=O)OCc1cccc(Oc2ccccc2)c1 (stereo not drawn) [permethrin]
- Percentage depletion (MALCYP6P9a): 65.38±1.5 %
- fold less depletion than wrMALCYP6P9b [1]: 2.15 fold
- fold less depletion than wrMALCYP6P9b [2]: 2 fold
- Percentage depletion (BENCYP6P9b [3]): 89.63±0.63 %
- Kcat (UGANCYP6P9b [4]): 8.61±3.40^b min^-1
- Kcat, fold higher than FANGCYP6P9b (UGANCYP6P9b [4]; UGANCYP6P9b vs FANGCYP6P9b): 2 fold
- Kcat (BENCYP6P9b [5]): 15.91±5.45^b min^-1
- Kcat, fold higher than FANGCYP6P9b (BENCYP6P9b [5]; BENCYP6P9b vs FANGCYP6P9b): 4 fold
- Kcat (MALCYP6P9b [6]): 12.38±4.5^b min^-1
- Km (MALCYP6P9b [6]): 12.7 ± 2.68 µM
- Kcat, fold higher than FANGCYP6P9b (MALCYP6P9b [6]; MALCYP6P9b vs FANGCYP6P9b): 3 fold
- catalytic efficiency, fold more efficient than FANGCYP6P9b (MALCYP6P9b [6]; MALCYP6P9b vs FANGCYP6P9b): 5 fold
- Kcat (UGANCYP6P9a [7]): 0.122 ± 0.017 s⁻¹
- Kcat, fold higher than FANGCYP6P9a (UGANCYP6P9a [7]; UGANCYP6P9a vs FANGCYP6P9a): 2 fold
- catalytic efficiency, fold higher than FANGCYP6P9a (UGANCYP6P9a [7]; UGANCYP6P9a vs FANGCYP6P9a): 3 fold
- Kcat (BENCYP6P9a [8]): 9.37±3.32^a min^-1
- Kcat, fold higher than FANGCYP6P9a (BENCYP6P9a [8]; BENCYP6P9a vs FANGCYP6P9a): 2 fold
- catalytic efficiency, fold higher than FANGCYP6P9a (BENCYP6P9a [8]; BENCYP6P9a vs FANGCYP6P9a): 3 fold
- Percentage depletion (FANGCYP6P9a [9]): 29.0±1.42%
- Percentage depletion (UGANCYP6P9b [10]): 88.58±3.48 %
- Percentage depletion (UGANCYP6P9a [11]): 60.71±0.92 %
- Km (CYP6M2; An. gambiae CYP6M2 ref [5] (S1 Text)): 12 µM
- catalytic efficiency (CYP6M2; Anopheles gambiae CYP6M2 ref [5] (S1 Text)): ~ 0.5 min^-1µM^-1
- mortality ([12]; 12 hrs): 55%
- mortality ([12]; 24 hrs): ~ 60%
- mortality ([13]; 2 hrs): 30%
- mortality ([13]; 3 hrs): ~ 60%
- mortality ([13]; 6 hrs): ~ 70%
- mortality ([14]; 12 hrs): < 30%
- mortality ([14]; 24 hrs): ~ 30%
- mortality ([15]; 2 hrs): less than 10%
- mortality ([15]; 3 hrs): < 30%
- mortality ([15]; 6 hrs): < 45%
- Percentage depletion (FANGCYP6P9b [16]): 13.7±4.23%
- Kcat [17]: 0.1317 ± 0.0138 s⁻¹
- Km [17]: 10.3 ± 2.38 µM
- Percentage depletion (MALCYP6P9b [18]): more than 90%
- Percentage depletion (MALCYP6P9b [18]; listed as Permethrin): 91.6±2.5 %
- Kcat (FANGCYP6P9a [19]): 0.0825 ± 0.032 s⁻¹
- Kcat (FANGCYP6P9b [20]): 0.075 ± 0.0225 s⁻¹
- Km (FANGCYP6P9b [20]): 20.5 ± 8.31 µM
- Percentage depletion (BENCYP6P9a [21]): 66.42±2.23 %
